Consider three molecules from patent publication US11363979B2, “Addressable vertical nanowire probe arrays and fabrication methods” (priority 2016, dated 2022).

Where two headings read alike, the source gives them in different places.

The subject of experiment [1] is mouse hippocampal neurons. Briefly: Pharmacological stimulation and inhibition of neurons recorded on the vertical Si nanowire probe array. Format: cell-based.
In experiment [2] the test system is human iPSC-derived neurons. Format: cell-based.

For the molecule `[Cl-].[K+]` [KCl], in experiment [1], the “cellular activity / neuronal spiking” value was “increased” and the “firing (rate) of spontaneous action potentials” value was “increased firing rate”. Also, the “activity relative to the baseline recording” value in experiment [1] (extracellular configuration, injection, nanowire recording) was “increased activity relative to the baseline recording”. The “firing (rate) of spontaneous action potentials” value in experiment [2] is recorded as “increased firing rate”.

For the molecule `NC1=N[C@H](O)[C@H]2[C@H]3O[C@]4(O)O[C@@H]([C@@H](O)[C@@]2(N1)[C@@H]4O)[C@]3(O)CO` [TTX, tetrodotoxin], in experiment [1], the “activity relative to the baseline recording” value is “eliminated” and the “cellular activity / neuronal spiking” value was “neuronal spiking vanished”.

As for glutamate, the “cellular activity / neuronal spiking” value in experiment [1] is recorded as “increased”. The “cell activity (frequency and amplitude) compared to the baseline spontaneous activity measured on the same channel” value in experiment [1] (intracellular configuration, injection, nanowire recording) is “increase of the cell activity with respect to frequency and amplitude”.
